{"source": "patent US20130203858A1", "about": "“Fast-Dissolving Solid Pharmaceutical Form for Treating Bacterial Infections” (Nanocore Biotecnologia S.A., priority 2010, published 2013)", "origin": "cited, not measured here", "key": {"[1]": {"conditions": "WO2009/061780 composition in the absence of PVP"}}, "data": [{"compound": "CS(=O)(=O)c1ccc([C@@H](O)[C@@H](CF)NC(=O)C(Cl)Cl)cc1", "note": "[florfenicol, Florfenicol]", "values": [{"measurement": "solubility in water", "result": "about 1.2 mg/mL"}, {"measurement": "portion of the drug that solubilises in water", "setting": "without addition of surfactants", "result": "about 20%"}, {"measurement": "portion of the drug solubilized in water", "setting": "[1]", "result": "about 40%"}]}]}
